Drawing on patent US9307764B2, “Pesticidal diaryl—heterocyclyl derivatives” (BAYER INTELLECTUAL PROPERTY GMBH, priority 2011, dated 2016), this text covers pesticidal ratio and acaricidal ratio for 3 compounds.

What all share (type): in vivo
Test [1] relates to Spodoptera litura. Description: Biological Test Example 3: Test on larvae of Spodoptera litura (method using artificial feeds). The settings on record: 100 ppm effective component concentration, 3rd-instar larvae, after 7 days, 25° C. How it is done:
(§1) Unless other methods are mentioned specifically, the sample solution preparation was prepared as follows.
(§2) Solvent: 3 parts by weight of dimethyl formamide
(§3) Emulsifier: 1 part by weight of polyoxyethylene alkyl phenyl ether
(§4) To prepare a suitable concoction including the active compound, 1 part by weight of the active compound was mixed with the above amount of the solvent containing the above amount of the emulsifier, and the resulting mixture was diluted with water to predetermined concentrations.
Powdery artificial feeds (trade name: SILK MATE, manufactured by Nihon Nosan Kogyo, Japan, 2.3 g) were added to a plastic cup (diameter: 7.5 cm, height: 4 cm) to achieve a certain thickness. Water-diluted liquid (5 mL) of the active compound prepared above having predetermined concentration was evenly poured thereto and allowed to stand until the feeds are solidified. Five of the 3rd-instar larvae of Spodoptera litura were released in each cup, and covered with a lid. The cups were put in a temperature controlled room at 25° C. having humidity of 50 to 60%, and the number of dead larvae after 7 days was determined to calculate the pesticidal ratio. 100% pesticidal ratio means death of all the larvae, while 0% pesticidal ratio means no dead larvae.

The subject of test [2] is Aulacophora femoralis. The test can be described thus: Biological Test Example 2: Test on Aulacophora femoralis (cucumber leaf immersion). Particulars: 100 ppm effective component concentration, 2nd-instar larvae, seven days later, 25° C. How it is done: as §1, §2, §3, §4
Leaves of cucumbers were immersed in the water-diluted solution containing the active compound at the predetermined concentration which was prepared above and, after the solution was air-dried, the resultant leaves were put onto sterilized black soil in a plastic cup, into which five of the 2nd-instar larvae of Aulacophora femoralis were then released. The cup was covered with a lid and maintained in a temperature controlled room at 25° C. having humidity of 50 to 60%. Seven days later, the number of dead larvae was counted to calculate the pesticidal ratio. 100% pesticidal ratio means death of all the larvae, while 0% pesticidal ratio means no dead larvae.

The test system of test [3] is Tetranychus urticae. Description: Biological Test Example 1: Test on Tetranychus urticae (spray on Egyptian bean leaves). Particulars: 100 ppm effective component concentration, adult mites, seven days later. How it is done:
as §1, §2, §3, §4
50 to 100 of adult Tetranychus urticae were inoculated to leaves at 2-leaf stage of Egyptian bean planted in pots of 6 cm in diameter, to which, 1 day later, the above prepared water diluted solution of the active compound at the predetermined concentration was sufficiently sprayed with a spray gun. After the compounds were sprayed, the pots were left in a greenhouse and the acaricidal ratio was calculated seven days later. 100% acaricidal ratio means death of all the mites, while 0% acaricidal ratio means none of the mites were dead.

On to `CCC(=O)NCc1ccc(N2CC(c3cc(Cl)c(Cl)c(Cl)c3)(C(F)(F)F)OS2=O)cc1C(F)(F)F` (centres unmarked) [3-17, N-{4-[2-oxide-5-(3,4,5-trichlorophenyl)-5-(trifluoromethyl)-1,2,3-oxathiazolin-3-yl]-2-(trifluoromethyl)benzyl}propane amide], for which the pesticidal ratio in test [1] and in test [2] was 100% in each case.

Regarding `CCC(=O)NCc1ccc(N2COC(c3cc(Cl)c(Cl)c(Cl)c3)(C(F)(F)F)C2)cc1C(F)(F)F` (centres unmarked) [Compound No. 1-17, N-{4-[5-(3,4,5-trichlorophenyl)-5-(trifluoromethyl)-1,3-oxazolidin-3-yl]-2-(trifluoromethyl)benzyl}propane amide], the pesticidal ratio in test [1] and in test [2] was 100% in each case. The acaricidal ratio in test [3] came out at 100%.

On to `CCC(=O)NCc1ccc(N2CC(c3cc(Cl)c(Cl)c(Cl)c3)(C(F)(F)F)OS2(=O)=O)cc1C(F)(F)F` (centres unmarked) [5-17, N-{4-[2,2-dioxide-5-(3,4,5-trichlorophenyl)-5-(trifluoromethyl)-1,2,3-oxathiazolin-3-yl]-2-(trifluoromethyl)benzyl}propane amide], for which the pesticidal ratio in test [1] and in test [2] was 100% throughout. The acaricidal ratio in test [3] was 100%.
